Several values for one entry are separate records, joined by “and”; a condition that tells them apart may be missing. Identical values can stand only once. Like-named read-outs stand apart in the source and are kept apart here.
Columns and labels:
[1] = biological target: T1, McpH-LBD (Pseudomonas putida, UniProt Q88R14); experiment: ITC titration of McpH-LBD with adenine at different pH; format: binding, P. putida KT2440; details: 25°C
T1 construct: pET28b(+) derivative containing a DNA fragment encoding the McpH-LBD; made in house
T1 sequence (Q88R14 51-276): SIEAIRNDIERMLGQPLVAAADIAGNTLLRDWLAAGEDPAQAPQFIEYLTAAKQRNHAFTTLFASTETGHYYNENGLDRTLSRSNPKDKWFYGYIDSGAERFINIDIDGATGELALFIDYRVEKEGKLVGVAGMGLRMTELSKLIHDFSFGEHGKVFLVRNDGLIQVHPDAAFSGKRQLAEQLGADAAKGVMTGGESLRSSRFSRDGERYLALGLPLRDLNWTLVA

[2] = biological target: T2, TtgV (Pseudomonas putida, UniProt Q93PU6); experiment: ITC titration of TtgV with benzonitrile at different pH; format: binding, P. putida DOT-T1E; details: 25°C
T2 construct: made in house
T2 sequence (Q93PU6 whole entry): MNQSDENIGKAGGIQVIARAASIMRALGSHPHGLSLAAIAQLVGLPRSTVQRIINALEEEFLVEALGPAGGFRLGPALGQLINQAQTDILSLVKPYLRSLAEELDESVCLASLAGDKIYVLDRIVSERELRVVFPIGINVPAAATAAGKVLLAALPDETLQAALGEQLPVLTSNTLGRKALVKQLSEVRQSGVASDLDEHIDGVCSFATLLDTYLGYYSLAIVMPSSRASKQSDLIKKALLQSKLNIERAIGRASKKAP

[3] = biological target: T3, McpQ-LBD (Pseudomonas putida, UniProt Q88D09); experiment: ITC titration of McpQ-LBD with citrate at different pH; format: binding, P. putida KT2440; details: 25°C
T3 construct: pET28b(+) derivative containing a DNA fragment encoding the McpQ-LBD; made in house
T3 sequence (Q88D09 45-282): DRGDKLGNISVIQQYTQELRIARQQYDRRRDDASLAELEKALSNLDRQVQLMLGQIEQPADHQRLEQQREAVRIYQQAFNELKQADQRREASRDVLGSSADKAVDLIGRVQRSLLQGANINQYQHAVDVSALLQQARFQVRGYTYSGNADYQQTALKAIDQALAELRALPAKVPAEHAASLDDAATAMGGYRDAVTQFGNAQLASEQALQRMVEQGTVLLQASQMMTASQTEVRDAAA

[4] = biological target: T4, MBP (Escherichia coli, UniProt P0AEX9); experiment: ITC titration of maltose-binding protein (MBP) with D-maltose at different pH; design: species or system E. coli K12
T4 construct: His tag (from pET28b(+)) (N); made in house; host or cells: Escherichia coli BL21(DE3)

[5] = biological target: AdmX-LBD (Serratia plymuthica, UniProt P0DV33); experiment: ITC titration of AdmX-LBD with indole-3-pyruvic acid at different pH; format: binding, Serratia plymuthica A153
Sequence of AdmX-LBD (P0DV33 91-304): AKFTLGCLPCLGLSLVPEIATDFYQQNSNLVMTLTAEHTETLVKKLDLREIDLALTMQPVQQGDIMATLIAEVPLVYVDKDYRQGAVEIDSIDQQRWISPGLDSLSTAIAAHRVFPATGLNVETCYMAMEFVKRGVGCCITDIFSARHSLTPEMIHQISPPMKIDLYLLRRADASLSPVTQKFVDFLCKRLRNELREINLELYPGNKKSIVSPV

[6] = biological target: T5, PctA-LBD (Pseudomonas aeruginosa, UniProt G3XD24); experiment: ITC titration of PctA-LBD with L-alanine at different pH; format: binding, P. aeruginosa PAO1
T5 construct: pET28b(+) derivative containing a DNA fragment encoding the PctA-LBD; made in house
T5 sequence (G3XD24 32-276): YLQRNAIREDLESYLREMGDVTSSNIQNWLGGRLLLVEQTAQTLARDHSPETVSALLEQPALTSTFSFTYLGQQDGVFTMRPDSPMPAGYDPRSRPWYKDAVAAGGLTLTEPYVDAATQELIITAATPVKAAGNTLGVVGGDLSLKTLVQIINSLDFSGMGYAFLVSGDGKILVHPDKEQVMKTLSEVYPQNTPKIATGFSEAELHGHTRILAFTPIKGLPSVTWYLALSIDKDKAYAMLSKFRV

[7] = tested on: P. aeruginosa PAO1; experiment: Quantitative capillary chemotaxis assay at different pH; format: cell-based; details: 1 mM ligand
Method: We evaluated the effect of pH on P. aeruginosa chemotaxis to L-Ala, a ligand of the PctA chemoreceptor, using the quantitative capillary chemotaxis assay. Prior to performing these assays, we evaluated cell viability and motility at different pH values. We grew cells in minimal medium to an OD660 of 0.4, washed twice with chemotaxis buffer at the different pH values, resuspended in the corresponding buffer, and incubated for 1 h. Cells were then plated out to assess cell viability. […] We then determined the effect of different pH on the chemotactic responses to L-Ala.
Chemotaxis assays were performed as previously described ([79]) with some modifications. When cultures reached an OD660 of 0.4, the cells were gently washed twice with chemotaxis buffer at different pH and then resuspended in fresh buffer. The chemoeffector solutions were prepared in the corresponding chemotaxis buffer. Data are the means and standard deviations of at least 3 biological replicates conducted in triplicate.

[8] = biological target: T6, Tar (Escherichia coli, UniProt P07017); experiment: FRET (CheY-YFP/CheZ-CFP) chemotaxis pathway response, Tar as sole chemoreceptor; format: cell-based; details: E. coli VS181 with Tar as sole chemoreceptor, read-out: EC50 (half-maximal effective concentration), FRET titration
T6 construct: expressed in transfected cells; host or cells: receptorless E. coli VS181, plasmid pSB13 (pKG116 derivative)
T6 sequence (P07017 whole entry): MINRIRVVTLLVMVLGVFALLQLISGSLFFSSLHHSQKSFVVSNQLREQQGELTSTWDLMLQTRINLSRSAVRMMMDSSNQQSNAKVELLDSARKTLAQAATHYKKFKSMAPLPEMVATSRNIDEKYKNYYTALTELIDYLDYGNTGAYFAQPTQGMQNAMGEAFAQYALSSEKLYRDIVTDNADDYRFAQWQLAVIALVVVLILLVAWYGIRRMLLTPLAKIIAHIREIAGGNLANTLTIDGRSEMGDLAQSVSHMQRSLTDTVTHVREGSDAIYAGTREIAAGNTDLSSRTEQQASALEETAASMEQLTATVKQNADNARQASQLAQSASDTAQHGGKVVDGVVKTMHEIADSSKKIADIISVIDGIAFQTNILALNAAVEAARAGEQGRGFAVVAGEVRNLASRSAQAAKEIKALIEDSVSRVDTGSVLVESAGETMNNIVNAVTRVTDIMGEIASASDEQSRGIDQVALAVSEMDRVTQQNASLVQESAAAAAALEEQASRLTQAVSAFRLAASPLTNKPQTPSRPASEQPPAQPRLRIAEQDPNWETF

[9] = biological target: T7, Tar-LBD (Escherichia coli, UniProt P07017); experiment: ITC titration of Tar-LBD with L-aspartate at different pH; format: binding, E. coli K12; details: for pH range of binding: defined as binding with a KD below 1 mM
T7 construct: A DNA fragment encoding the Tar-LBD (amino acids 31 to 188) was amplified from genomic DNA of E. coli K12; His tag (from pET28b(+)) (N); made in house; host or cells: Escherichia coli BL21(DE3)

[10] = biological target: T7, Tar-LBD; experiment: Sedimentation-velocity analytical ultracentrifugation of Tar-LBD with and without L-Asp; design: species or system E. coli K12; details: 1 mM ligand; all pH values analysed (3.5, 5.0, 7.0, 10.0)
Method: To estimate the sedimentation coefficient expected for the monomeric and dimeric states of the Tar-LBD, a hydrodynamic model was generated from the 3D structure of the protein (pdb ID 4Z9H) ([45]). Using the HYDROPRO software, the theoretical sedimentation coefficients were s(20,w) = 2.12 S for the monomer and 3.54 S for the dimer (Fig. 5A).
Experiments were conducted on a ProteomeLab XL-I instrument (Beckman-Coulter) equipped with interference and absorbance optics. Sedimentation was carried out at 42,000 rpm and 10°C in an eight-hole Ti-50 Beckman Coulter rotor and monitored with absorbance optics at 280 nm in continuous mode. Samples were dialyzed into 4 different buffers, namely, 10 mM citric acid/sodium citrate, pH 3.5; 10 mM citric acid/sodium citrate, pH 5.0; 3 mM Tris, 3 mM PIPES, 3 mM MES, pH 7.0, and 10 mM Na2CO3/NaHCO3, pH 10.0. […] Density and viscosity of the buffer were calculated with [sequence] […] To assign the sedimentation coefficient observed to the corresponding oligomeric species, theoretical s values were calculated via HYDROPRO ([92]) hydrodynamic modeling software, applied to the 3D structure of the Tar-LBD monomer and dimer (pdb ID 4H9Z), with a 2.9 Å radius for the primary elements.

[11] = biological target: T7, Tar-LBD; experiment: Differential scanning calorimetry of Tar-LBD thermal unfolding in presence of L-Asp; design: species or system E. coli K12; details: 1 mM L-Asp
Method: Differential scanning calorimetry (DSC) provides information on the thermodynamics of protein unfolding. At 5.0, the optimal pH for binding and dimerization, Tar-LBD formed a sharp peak with or without 1 mM L-Asp (Fig. 5B and C, and Table S3), indicative of highly cooperative unfolding. […] We thus conclude that at all pH values tested, at least some of the protein was present in the dimeric form and capable of binding ligand.
Experiments were conducted on a MicroCal DSC-PEAQ system (Malvern Panalytical) at a scan rate of 90°C/h over a temperature range of 10°C to 85°C. Calorimetric cells (operating volume 0.134 mL) were kept under pressure (60 lb/in^2) to prevent sample degassing. Buffer-buffer baselines obtained after each assay were subtracted from the signal obtained from each of the samples. Protein samples were prepared as detailed in the “Analytical ultracentrifugation” section. The calorimetric enthalpies were estimated by integration of the transition peaks after subtracting the buffer-buffer baselines and fitting the curves to a “Non-two-state” model using MicroCal DSC-PEAQ software. For graphical clarity of the plots, baselines were manually curated and raw data were smoothed with the Savitzky-Golay algorithm.

[12] = biological target: T8, McpS-Tar (UniProt P07017+Q88E10); experiment: FRET (CheY-YFP/CheZ-CFP) chemotaxis pathway response, McpS-Tar hybrid as sole chemoreceptor; format: cell-based; details: E. coli VS181 with McpS-Tar as sole chemoreceptor, read-out: EC50 (half-maximal effective concentration), FRET titration
T8 construct: 295]-Tar[200-553] receptor; expressed in transfected cells; host or cells: receptorless E. coli VS181, plasmid pSB10 (pKG116 derivative)
T8 sequence (Q88E10+P07017 fused): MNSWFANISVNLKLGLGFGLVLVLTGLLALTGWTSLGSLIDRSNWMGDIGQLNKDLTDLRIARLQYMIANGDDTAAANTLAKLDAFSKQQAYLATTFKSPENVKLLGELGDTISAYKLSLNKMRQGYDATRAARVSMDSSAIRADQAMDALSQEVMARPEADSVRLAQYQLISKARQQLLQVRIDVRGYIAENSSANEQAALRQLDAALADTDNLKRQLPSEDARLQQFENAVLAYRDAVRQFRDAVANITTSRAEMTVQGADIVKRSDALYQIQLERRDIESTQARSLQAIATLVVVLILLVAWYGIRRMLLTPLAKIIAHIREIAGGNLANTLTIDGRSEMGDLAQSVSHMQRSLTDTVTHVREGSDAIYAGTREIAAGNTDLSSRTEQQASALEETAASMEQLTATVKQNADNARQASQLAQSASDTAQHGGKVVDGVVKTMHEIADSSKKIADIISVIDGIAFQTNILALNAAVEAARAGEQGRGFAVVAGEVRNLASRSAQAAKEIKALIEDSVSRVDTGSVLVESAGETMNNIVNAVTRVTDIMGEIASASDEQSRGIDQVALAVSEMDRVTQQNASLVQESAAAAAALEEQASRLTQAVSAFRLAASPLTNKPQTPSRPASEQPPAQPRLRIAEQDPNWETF

[13] = biological target: T9, CtpM-LBD (Pseudomonas aeruginosa, UniProt Q9I0I6); experiment: ITC titration of CtpM-LBD with L-malate at different pH; format: binding, P. aeruginosa PAO1
T9 construct: containing a DNA fragment encoding the CtpM (PA2652)-LBD; made in house
T9 sequence (Q9I0I6 33-205): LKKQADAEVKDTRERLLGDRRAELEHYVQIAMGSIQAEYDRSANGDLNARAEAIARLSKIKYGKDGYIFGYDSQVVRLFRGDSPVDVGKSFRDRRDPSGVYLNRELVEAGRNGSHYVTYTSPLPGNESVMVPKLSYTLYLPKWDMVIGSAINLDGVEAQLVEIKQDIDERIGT

[14] = biological target: T10, McpS-LBD (Pseudomonas putida, UniProt Q88E10); experiment: ITC titration of McpS-LBD with L-malate at different pH; format: binding, P. putida KT2440; details: 25°C
T10 construct: pET28b(+) derivative containing a DNA fragment encoding the McpS-LBD; made in house
T10 sequence (Q88E10 41-283): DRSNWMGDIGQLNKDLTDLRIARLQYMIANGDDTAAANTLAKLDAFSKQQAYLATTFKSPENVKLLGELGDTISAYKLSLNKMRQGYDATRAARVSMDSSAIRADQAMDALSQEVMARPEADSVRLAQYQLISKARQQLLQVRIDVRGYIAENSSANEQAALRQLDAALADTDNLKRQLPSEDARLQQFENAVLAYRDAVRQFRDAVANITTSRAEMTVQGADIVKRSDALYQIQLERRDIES

[15] = biological target: (UniProt A0A4D6XHN3); experiment: ITC titration of E6B08_RS28125 with L-ornithine at different pH; format: binding, P. putida 1290; details: 25°C, pH 9.0, read-out: KD at pH optimum
Sequence of (UniProt A0A4D6XHN3) (A0A4D6XHN3 24-265 limits assumed): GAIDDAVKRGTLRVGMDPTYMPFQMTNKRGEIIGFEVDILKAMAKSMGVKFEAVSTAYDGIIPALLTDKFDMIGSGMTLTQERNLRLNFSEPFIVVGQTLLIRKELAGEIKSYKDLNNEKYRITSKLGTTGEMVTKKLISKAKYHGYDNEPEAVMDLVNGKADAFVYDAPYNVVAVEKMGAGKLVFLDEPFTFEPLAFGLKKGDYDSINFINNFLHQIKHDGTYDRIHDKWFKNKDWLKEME

[16] = biological target: McpV-LBD (Sinorhizobium meliloti, UniProt Q7APD1); experiment: ITC titration of McpV-LBD with propionate at different pH; format: binding, Sinorhizobium meliloti RU11/001
Sequence of McpV-LBD (Q7APD1 entry or part of it): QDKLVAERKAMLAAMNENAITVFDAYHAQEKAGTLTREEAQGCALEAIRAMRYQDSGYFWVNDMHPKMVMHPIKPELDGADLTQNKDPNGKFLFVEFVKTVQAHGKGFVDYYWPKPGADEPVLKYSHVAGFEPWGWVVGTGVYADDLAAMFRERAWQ

[17] = biological target: McpU-LBD (Pseudomonas putida, UniProt Q88NI1); experiment: biochemical
Sequence of McpU-LBD (Q88NI1 50-284): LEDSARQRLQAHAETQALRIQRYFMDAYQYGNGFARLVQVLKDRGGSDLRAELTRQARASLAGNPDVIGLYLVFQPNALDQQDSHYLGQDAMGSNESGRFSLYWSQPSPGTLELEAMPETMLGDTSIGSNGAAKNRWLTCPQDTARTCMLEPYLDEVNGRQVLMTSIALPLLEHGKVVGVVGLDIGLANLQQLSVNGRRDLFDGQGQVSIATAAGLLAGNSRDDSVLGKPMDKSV
Method: (§1) To assess the pH dependence of ligand-binding, freshly purified proteins were dialyzed overnight into the buffers described in Table S1 and submitted to microcalorimetric titration.
(§2) Freshly purified proteins were dialyzed into the buffers specified in Table S1 and introduced into the sample cell of an VP-microcalorimeter (MicroCal). Proteins at 15 to 100 μM were titrated with 0.25 to 10 mM ligand solutions that were made up in dialysis buffer. For pH-active ligands, the pH of the ligand solutions was adjusted to that of the dialysis buffer by the addition of concentrated HCl or NaOH. Titrations of MBP and McpV-LBD were conducted at 15°C to favor endothermic contributions to binding heats, whereas the remaining titrations were carried out at 25°C. Raw titration data were integrated, corrected for ligand-dilution heats and normalized with the ligand concentrations. Resulting data were fitted with the “One Binding site model” of the MicroCal version of ORIGIN. Provided are the dissociation constants derived from one experiment and the error of curve-fitting.

[18] = biological target: T11, PcaY_PP-LBD (Pseudomonas putida, UniProt Q88JK6); experiment: ITC titration of PcaY_PP-LBD with quinate at different pH; format: binding, P. putida KT2440
T11 construct: made in house
T11 sequence (Q88JK6 44-196): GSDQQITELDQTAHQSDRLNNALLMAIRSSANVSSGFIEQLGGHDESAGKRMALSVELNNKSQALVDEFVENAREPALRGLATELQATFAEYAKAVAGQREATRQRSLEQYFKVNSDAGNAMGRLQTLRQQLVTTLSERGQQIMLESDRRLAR
Method: as §1, §2

[19] = biological target: TodS-Nter (Pseudomonas putida, UniProt E0X9C7); experiment: biochemical
Sequence of TodS-Nter (E0X9C7 1-584): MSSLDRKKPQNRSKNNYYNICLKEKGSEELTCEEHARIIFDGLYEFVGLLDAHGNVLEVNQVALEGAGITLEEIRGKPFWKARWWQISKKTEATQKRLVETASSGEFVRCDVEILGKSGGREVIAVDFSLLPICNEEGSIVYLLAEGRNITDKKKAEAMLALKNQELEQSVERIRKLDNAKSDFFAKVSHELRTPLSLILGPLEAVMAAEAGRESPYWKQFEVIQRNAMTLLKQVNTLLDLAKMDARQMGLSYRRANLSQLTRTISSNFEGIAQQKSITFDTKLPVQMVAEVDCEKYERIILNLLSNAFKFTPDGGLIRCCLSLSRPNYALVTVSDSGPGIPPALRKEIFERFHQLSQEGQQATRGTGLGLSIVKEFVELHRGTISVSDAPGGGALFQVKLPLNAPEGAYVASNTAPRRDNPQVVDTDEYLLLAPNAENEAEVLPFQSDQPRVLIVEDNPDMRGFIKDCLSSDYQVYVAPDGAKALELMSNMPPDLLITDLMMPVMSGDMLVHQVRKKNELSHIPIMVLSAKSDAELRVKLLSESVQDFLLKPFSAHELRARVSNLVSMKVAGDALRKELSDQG
Method: as §1, §2

[20] = biological target: the molecule itself; experiment: AUC; sedimentation velocity with 1 mM L-Asp, 35 uM protein, pH 3.5, 5.0, 7.0 and 10.0, 10°C, 42,000 rpm; monomer to dimer
[21] = defined as binding with a KD below 1 mM
[22] = pH 6.0, read-out: KD at pH optimum
[23] = 15°C, defined as binding with a KD below 1 mM
[24] = ITC, 25°C, defined as binding with a KD below 1 mM
[25] = 25°C, defined as binding with a KD below 1 mM

Molecule: Nc1ncnc2[nH]cnc12 [Adenine]
- pH optimum [1]: 5.0
- pH range of binding [1, 21]: 3.5-10.0
- Kd ([1]; pH 5.0, read-out: KD at pH optimum): 1680 nM

Molecule: N#Cc1ccccc1 [Benzonitrile]
- pH optimum [2]: 6.0
- pH range of binding [2, 21]: 5.0-9.0
- Kd [2, 22]: 67.6 µM

Molecule: O=C(O)CC(O)(CC(=O)O)C(=O)O [Citrate]
- pH optimum [3]: 6.0
- Kd [3, 22]: 153 µM

Molecule: OC[C@H]1O[C@H](O[C@H]2[C@H](O)[C@@H](O)[C@H](O)O[C@@H]2CO)[C@H](O)[C@@H](O)[C@@H]1O [D-maltose]
- width of pH range of ligand recognition [4]: 8.5 pH units
- pH optimum ([4]; 15°C): 9.0
- pH range of binding [4, 23]: 2.5-11.0

Molecule: O=C(O)C(=O)Cc1c[nH]c2ccccc12 [Indole-3-pyruvic acid]
- Kd [5]: 12.7 µM
- pH optimum ([5]; ITC, 25°C): 8.0
- pH range of binding [5, 24]: 7.5-8.0

Molecule: C[C@H](N)C(=O)O [L-alanine]
- pH optimum ([6]; 25°C): 5.5
- pH range of binding [6, 25]: 3.0-11.5
- Kd ([6]; average over the pH range 3.0 to 11.0, read-out: average dissociation constant (KD)): 1260 ± 700 nM
- Kd ([6]; pH 3.0, read-out: dissociation constant (KD)): 1300 nM
- width of pH range of high-affinity binding ([6]; pH 3.0 to 11.5): 8.5 pH units
- Kd ([6]; pH 9.0, read-out: dissociation constant (KD)): 910 nM
- Kd ([6]; pH 11.0, read-out: dissociation constant (KD)): 3900 nM
- pH of optimal chemotactic responses [7]: 7.0

Molecule: N[C@@H](CC(=O)O)C(=O)O [L-aspartate]
- EC50 ([8]; pH 5.5): 166 ± 20 nM
- EC50 ([8]; pH 7.0): 202 ± 20 nM
- EC50 ([8]; pH 8.5): 77 ± 10 nM
- EC50 ([8]; pH 9.5): 141 ± 20 nM
- pH optimum ([9]; 25°C): 5.0
- pH range of binding ([9]; 25°C): 3.0-10.5
- pH range of binding ([9]; 25°C, listed as L-Asp): ≤ 10.5
- Kd ([9]; 25°C, pH 5.0, read-out: KD at pH optimum): 400 nM
- width of pH range of high-affinity binding ([9]; pH 3.0 to 10.5): 7.5 pH units
- effect on Tar-LBD monomer-dimer equilibrium [10]: shifted the equilibrium almost completely to the dimeric species
- Tm of Tar-LBD thermal unfolding ([11]; pH 3.5, two transitions): 44.28 ºC and 64.51 ºC
- Tm of Tar-LBD thermal unfolding ([11]; pH 5.0): 47.73 ºC
- ΔH of Tar-LBD thermal unfolding ([11]; pH 5.0): 106.4 kcal/mol
- Tm of Tar-LBD thermal unfolding ([11]; pH 7.0, two transitions): 36.48 ºC and 42.20 ºC
- Tm of Tar-LBD thermal unfolding ([11]; pH 10.0): 35.11 ºC
- ΔH of Tar-LBD thermal unfolding ([11]; pH 10.0): 98.6 kcal/mol

Molecule: O=C(O)C[C@H](O)C(=O)O [L-malate]
- EC50 ([12]; pH 5.5): 9.38 ± 1.9 µM
- EC50 ([12]; pH 7.0): 2.18 ± 0.41 µM
- EC50 ([12]; pH 8.5): 7.66 ± 1.9 µM
- width of pH range of high-affinity binding [13]: 4.5 pH units
- pH optimum ([13]; 25°C): 6.5
- pH range of binding [13, 25]: 4.5-9.0
- Kd ([13]; 25°C, pH 6.5, read-out: KD at pH optimum): 38.7 µM
- pH optimum [14]: 5.5
- pH range of binding [14, 21]: 3.0-10.0
- Kd ([14]; pH 5.5, read-out: KD at pH optimum): 4 µM

Molecule: NCCC[C@H](N)C(=O)O [L-ornithine]
- Kd [15]: 660 nM

Molecule: CCC(=O)O [Propionate]
- width of pH range of high-affinity binding [16]: 6.5 pH units
- pH optimum ([16]; 15°C): 7.0
- pH range of binding [16, 23]: 5.0-11.5
- Kd ([16]; 15°C, pH 7.0, read-out: KD at pH optimum): 33.1 µM

Molecule: NCCCCN [Putrescine]
- Kd [17]: 700 nM
- pH optimum ([17]; ITC, 25°C): 8.5
- pH range of binding [17, 24]: 4.5-11.5

Molecule: O=C(O)[C@]1(O)C[C@@H](O)[C@@H](O)[C@H](O)C1 [Quinate]
- Kd [18]: 1220 nM
- pH optimum ([18]; ITC, 25°C): 5.0
- pH range of binding [18, 24]: 3.5-11.5
- width of pH profile of binding ([18]; ITC, pH 3.5-11.5): 8 pH units

Molecule: Cc1ccccc1 [Toluene]
- Kd [19]: 250 nM
- width of pH range of ligand recognition ([19]; ITC): 4 pH units
- pH optimum ([19]; ITC, 25°C): 6.5
- pH range of binding [19, 24]: 5.5-9.5

B1: Tar-LBD (ligand-binding domain of the aspartate chemoreceptor Tar of E. coli) (domain or fragment, E. coli K12, UniProt P07017 31-188, looked up)
chain: SSLHHSQKSFVVSNQLREQQGELTSTWDLMLQTRINLSRSAVRMMMDSSNQQSNAKVELLDSARKTLAQAATHYKKFKSMAPLPEMVATSRNIDEKYKNYYTALTELIDYLDYGNTGAYFAQPTQGMQNAMGEAFAQYALSSEKLYRDIVTDNADDYR
notes: Cloned into the NdeI and BamHI sites of pET28b(+) and purified on a HisTrap column; In solution it is a rapidly interchanging mixture of monomer and dimer; also called E. coli Tar-LBD; LBD of the Tar chemoreceptor; source: E. coli BL21(DE3), purified (HisTrap)
- stoichiometry N [20]: 2
